Results: BindingDB's records for doi:10.1074/jbc.M109.067967 (University of Michigan, 2010)
pIC50: −log10 of the molar value.

Key:
[1] = target: T1, Plasminogen activator inhibitor 1 (Homo sapiens, UniProt P05121); experiment: Enzymatic Assay; settings: pH 7.8; 23 °C
[2] = target: T1, Plasminogen activator inhibitor 1; experiment: Enzyme activity assay using human and murine PAI-1.; settings: pH 7.8
[3] = target: Plasminogen activator inhibitor 1 (Mus musculus, UniProt P22777); experiment: Enzymatic Assay; settings: pH 7.8; 23 °C

SMILES	pIC50 [1]	pIC50 [2]	pIC50 [3]
O=C(O[C@@H]1Cc2c(O)cc(O)cc2O[C@@H]1c1cc(O)c(O)c(O)c1)c1cc(O)c(O)c(O)c1 [(-)-Epigallocatechin-3-o-gallate]	7.04	–	–
O=C(Oc1cc(O)cc2c1C[C@@H](OC(=O)c1cc(O)c(O)c(O)c1)[C@@H](c1cc(O)c(O)c(O)c1)O2)c1cc(O)c(O)c(O)c1 [Epigallocatechin-3,5-Digallate, C]	6.48	–	–
O=C(O)c1cc(O)c(O)c(O)c1 [Gallic Acid, F]	5.18	–	–
O=C1c2ccc(O)c(O)c2C(=O)c2c(O)ccc(O)c21 [Quinalizarin, E]	5.36	–	–
O=C(O)c1cc(O)c2c(c1)[C@H]([C@H]1c3cc(C(=O)O)cc(O)c3C(=O)c3c(O[C@@H]4O[C@H](CO)[C@@H](O)[C@H](O)[C@H]4O)cccc31)c1cccc(O[C@@H]3O[C@H](CO)[C@@H](O)[C@H](O)[C@H]3O)c1C2=O [Sennoside A, G]	4.29	–	–
O=C(OCC1OC(OC(=O)c2cc(O)c(O)c(OC(=O)c3cc(O)c(O)c(O)c3)c2)C(OC(=O)c2cc(O)c(O)c(OC(=O)c3cc(O)c(O)c(O)c3)c2)C(OC(=O)c2cc(O)c(O)c(OC(=O)c3cc(O)c(O)c(O)c3)c2)C1OC(=O)c1cc(O)c(O)c(OC(=O)c2cc(O)c(O)c(O)c2)c1)c1cc(O)c(O)c(OC(=O)c2cc(O)c(O)c(O)c2)c1 (centres undefined) [Tannic Acid, A]	8.15	8.18	8.39

Next, values leading:

pIC50 [1]	pIC50 [2]	pIC50 [3]	SMILES
–	7.36	6.79	O=C(OCCOC(=O)c1cc(O)c(O)c(O)c1)c1cc(O)c(O)c(O)c1 [CDE-008]
–	7.70	6.88	O=C(O[C@H]1CCCC[C@H]1OC(=O)c1cc(O)c(O)c(O)c1)c1cc(O)c(O)c(O)c1 [CDE-031]
–	6.94	6.19	O=C(O[C@@H]1CCCC[C@H]1OC(=O)c1cc(O)c(O)c(O)c1)c1cc(O)c(O)c(O)c1 [CDE-034]
–	7.13	6.12	O=C(Oc1ccccc1OC(=O)c1cc(O)c(O)c(O)c1)c1cc(O)c(O)c(O)c1 [CDE-056]
–	7.85	7.10	O=C(OCC(COC(=O)c1cc(O)c(O)c(O)c1)OC(=O)c1cc(O)c(O)c(O)c1)c1cc(O)c(O)c(O)c1 [CDE-082]
5.42	–	–	Oc1c(Cl)cc(Cl)c(Cl)c1Cc1c(O)c(Cl)cc(Cl)c1Cl [SMR000058356]
